According to ChEMBL document CHEMBL3885861, “Open TG-GATES”:

Species: Rattus norvegicus
Assay: Open TG-GATES - Regimen: Single
Type: toxicity, organism-based, Sprague-Dawley
Set-up: regimen Single, gender Male, age 6 weeks
Conditions: in vivo, po, route gavage; for APTT / Bas / Eos / Fbg / Hb / Ht / Lym / MCH / MCHC / MCV / Mono / Neu / PT / Plat / RBC / Ret / WBC: tissue Blood; for LIVER: tissue Liver; for A/G / ALP / ALT / AST / BUN / CRE / Ca / Cl / DBIL / GLC / IP / K / LDH / Na / PL / RALB / TBIL / TC / TG / TP / gamma-GTP: tissue Plasma
[1] = 0 mg/kg, 3 h, dose level Control
[2] = 0 mg/kg, 6 h, dose level Control
[3] = 0 mg/kg, 9 h, dose level Control
[4] = 0 mg/kg, 24 h, dose level Control

## C=C(C)[C@H]1Cc2c(ccc3c2O[C@@H]2COc4cc(OC)c(OC)cc4[C@@H]2C3=O)O1 [ROTENONE]
[1]
  TERMINAL_BW: 198.4 g
  APTT: 15 s
  Bas: 0%
  Eos: 1%
  Fbg: 207.8 mg/dL
  Hb: 12.6 g/dL
  Ht: 38.3%
  Lym: 76.8%
  MCH: 21 pg
  MCHC: 33%
  MCV: 63.7 fL
  Mono: 5%
  Neu: 17.6%
  PT: 12.1 s
  Plat: 131.6 x10_4/uL
  RBC: 601.6 x10_4/ul
  Ret: 9.8%
  WBC: 98.8 x10_2/uL
  LIVER: 9.4 g
  A/G: 2.3
  ALP: 1432.2 IU/L
  ALT: 35.8 IU/L
  AST: 70.6 IU/L
  BUN: 12.8 mg/dL
  CRE: 0.3 mg/dL
  Ca: 11 mg/dL
  Cl: 104.6 meq/L
  DBIL: 0.01 mg/dL
  GLC: 188.2 mg/dL
  IP: 8.3 mg/dL
  K: 4.4 meq/L
  LDH: 80.6 IU/L
  Na: 140.4 meq/L
  PL: 139.6 mg/dL
  RALB: 3.7 g/dL
  TBIL: 0.04 mg/dL
  TC: 82.8 mg/dL
  TG: 61.2 mg/dL
  TP: 5.3 g/dL
  gamma-GTP: 1 IU/L
[2]
  TERMINAL_BW: 197 g
  APTT: 15.9 s
  Bas: 0%
  Eos: 1%
  Fbg: 218 mg/dL
  Hb: 13.2 g/dL
  Ht: 40.3%
  Lym: 72.2%
  MCH: 21.2 pg
  MCHC: 32.8%
  MCV: 64.5 fL
  Mono: 9%
  Neu: 17.6%
  PT: 12.1 s
  Plat: 122.2 x10_4/uL
  RBC: 625.8 x10_4/ul
  Ret: 8.1%
  WBC: 92.8 x10_2/uL
  LIVER: 8.7 g
  A/G: 2.3
  ALP: 1181 IU/L
  ALT: 35.4 IU/L
  AST: 67 IU/L
  BUN: 9.6 mg/dL
  CRE: 0.4 mg/dL
  Ca: 10.9 mg/dL
  Cl: 103.4 meq/L
  DBIL: 0.01 mg/dL
  GLC: 181.8 mg/dL
  IP: 9 mg/dL
  K: 4.4 meq/L
  LDH: 87 IU/L
  Na: 139.2 meq/L
  PL: 139.8 mg/dL
  RALB: 3.8 g/dL
  TBIL: 0.048 mg/dL
  TC: 81.8 mg/dL
  TG: 82.8 mg/dL
  TP: 5.4 g/dL
  gamma-GTP: 0.4 IU/L
[3]
  TERMINAL_BW: 190.2 g
  APTT: 16 s
  Bas: 0%
  Eos: 1%
  Fbg: 209 mg/dL
  Hb: 13 g/dL
  Ht: 39.4%
  Lym: 74.4%
  MCH: 21.4 pg
  MCHC: 32.9%
  MCV: 64.8 fL
  Mono: 8.4%
  Neu: 16.6%
  PT: 12.2 s
  Plat: 123.2 x10_4/uL
  RBC: 609 x10_4/ul
  Ret: 9.2%
  WBC: 95 x10_2/uL
  LIVER: 8 g
  A/G: 2.5
  ALP: 1388.2 IU/L
  ALT: 33.6 IU/L
  AST: 64.4 IU/L
  BUN: 9.8 mg/dL
  CRE: 0.3 mg/dL
  Ca: 11 mg/dL
  Cl: 104.2 meq/L
  DBIL: 0.01 mg/dL
  GLC: 182.2 mg/dL
  IP: 10.2 mg/dL
  K: 4.1 meq/L
  LDH: 74.6 IU/L
  Na: 140 meq/L
  PL: 134.2 mg/dL
  RALB: 3.8 g/dL
  TBIL: 0.05 mg/dL
  TC: 81.4 mg/dL
  TG: 42.2 mg/dL
  TP: 5.3 g/dL
  gamma-GTP: 1 IU/L
[4]
  TERMINAL_BW: 212.6 g
  APTT: 15.6 s
  Bas: 0%
  Eos: 1%
  Fbg: 220.6 mg/dL
  Hb: 12.6 g/dL
  Ht: 38.4%
  Lym: 69%
  MCH: 21.6 pg
  MCHC: 32.8%
  MCV: 65.9 fL
  Mono: 9.8%
  Neu: 20%
  PT: 12 s
  Plat: 131.2 x10_4/uL
  RBC: 582.6 x10_4/ul
  Ret: 8.3%
  WBC: 108.8 x10_2/uL
  LIVER: 10.1 g
  A/G: 2.5
  ALP: 1476.8 IU/L
  ALT: 48 IU/L
  AST: 75.8 IU/L
  BUN: 18 mg/dL
  CRE: 0.4 mg/dL
  Ca: 11.5 mg/dL
  Cl: 103.8 meq/L
  DBIL: 0.014 mg/dL
  GLC: 181.6 mg/dL
  IP: 7.2 mg/dL
  K: 4.8 meq/L
  LDH: 93.8 IU/L
  Na: 139 meq/L
  PL: 148.4 mg/dL
  RALB: 3.9 g/dL
  TBIL: 0.042 mg/dL
  TC: 81.2 mg/dL
  TG: 123.6 mg/dL
  TP: 5.5 g/dL
  gamma-GTP: 0.6 IU/L
5 mg/kg, 3 h, dose level Low
  TERMINAL_BW: 199.1 g
  APTT: 15.7 s
  Bas: 0%
  Eos: 1%
  Fbg: 223 mg/dL
  Hb: 12.6 g/dL
  Ht: 38.3%
  Lym: 77.2%
  MCH: 21.2 pg
  MCHC: 33%
  MCV: 64.3 fL
  Mono: 7.2%
  Neu: 14.6%
  PT: 12.3 s
  Plat: 119.4 x10_4/uL
  RBC: 595.4 x10_4/ul
  Ret: 8.6%
  WBC: 104.4 x10_2/uL
  LIVER: 9.3 g
  A/G: 2.1
  ALP: 1388.6 IU/L
  ALT: 39 IU/L
  AST: 64.8 IU/L
  BUN: 13.8 mg/dL
  CRE: 0.4 mg/dL
  Ca: 11.5 mg/dL
  Cl: 103.8 meq/L
  DBIL: 0.012 mg/dL
  GLC: 189.2 mg/dL
  IP: 8.4 mg/dL
  K: 4.3 meq/L
  LDH: 112.6 IU/L
  Na: 140.6 meq/L
  PL: 142.2 mg/dL
  RALB: 3.7 g/dL
  TBIL: 0.04 mg/dL
  TC: 89.6 mg/dL
  TG: 74.8 mg/dL
  TP: 5.4 g/dL
  gamma-GTP: 1 IU/L
5 mg/kg, 6 h, dose level Low
  TERMINAL_BW: 191.9 g
  APTT: 17.5 s
  Bas: 0%
  Eos: 1%
  Fbg: 227.6 mg/dL
  Hb: 12.9 g/dL
  Ht: 39.6%
  Lym: 77.4%
  MCH: 21 pg
  MCHC: 32.8%
  MCV: 64.1 fL
  Mono: 4.2%
  Neu: 17.8%
  PT: 12.6 s
  Plat: 127.8 x10_4/uL
  RBC: 618.2 x10_4/ul
  Ret: 8.4%
  WBC: 86.8 x10_2/uL
  LIVER: 8.4 g
  A/G: 2.3
  ALP: 1155.6 IU/L
  ALT: 36.8 IU/L
  AST: 67.6 IU/L
  BUN: 10.6 mg/dL
  CRE: 0.4 mg/dL
  Ca: 11 mg/dL
  Cl: 104.6 meq/L
  DBIL: 0.01 mg/dL
  GLC: 182.8 mg/dL
  IP: 8.9 mg/dL
  K: 4.3 meq/L
  LDH: 86.6 IU/L
  Na: 140 meq/L
  PL: 133.4 mg/dL
  RALB: 3.7 g/dL
  TBIL: 0.046 mg/dL
  TC: 82.2 mg/dL
  TG: 48.6 mg/dL
  TP: 5.4 g/dL
  gamma-GTP: 1 IU/L
5 mg/kg, 9 h, dose level Low
  TERMINAL_BW: 190.6 g
  APTT: 16.3 s
  Bas: 0%
  Eos: 1%
  Fbg: 218.6 mg/dL
  Hb: 12.9 g/dL
  Ht: 39.5%
  Lym: 66.8%
  MCH: 21.2 pg
  MCHC: 32.6%
  MCV: 65.1 fL
  Mono: 10.6%
  Neu: 22.2%
  PT: 12.3 s
  Plat: 123.8 x10_4/uL
  RBC: 606.2 x10_4/ul
  Ret: 8.4%
  WBC: 86.2 x10_2/uL
  LIVER: 8.1 g
  A/G: 2.4
  ALP: 1273.6 IU/L
  ALT: 29.2 IU/L
  AST: 63 IU/L
  BUN: 10.2 mg/dL
  CRE: 0.3 mg/dL
  Ca: 11.1 mg/dL
  Cl: 104.6 meq/L
  DBIL: 0.008 mg/dL
  GLC: 183.4 mg/dL
  IP: 10.2 mg/dL
  K: 4.2 meq/L
  LDH: 102.8 IU/L
  Na: 139.4 meq/L
  PL: 129.6 mg/dL
  RALB: 3.8 g/dL
  TBIL: 0.044 mg/dL
  TC: 78 mg/dL
  TG: 42.4 mg/dL
  TP: 5.4 g/dL
  gamma-GTP: 1 IU/L
5 mg/kg, 24 h, dose level Low
  TERMINAL_BW: 213.3 g
  APTT: 15.6 s
  Bas: 0%
  Eos: 1%
  Fbg: 208.6 mg/dL
  Hb: 12.8 g/dL
  Ht: 39%
  Lym: 69%
  MCH: 21.2 pg
  MCHC: 32.8%
  MCV: 64.7 fL
  Mono: 10%
  Neu: 19.8%
  PT: 12 s
  Plat: 123.2 x10_4/uL
  RBC: 602.8 x10_4/ul
  Ret: 8.5%
  WBC: 98.2 x10_2/uL
  LIVER: 10.5 g
  A/G: 2.4
  ALP: 1417.6 IU/L
  ALT: 40.4 IU/L
  AST: 71 IU/L
  BUN: 15.6 mg/dL
  CRE: 0.4 mg/dL
  Ca: 11.5 mg/dL
  Cl: 103.2 meq/L
  DBIL: 0.014 mg/dL
  GLC: 187.2 mg/dL
  IP: 7.7 mg/dL
  K: 4.6 meq/L
  LDH: 106.6 IU/L
  Na: 139.4 meq/L
  PL: 158.8 mg/dL
  RALB: 3.9 g/dL
  TBIL: 0.034 mg/dL
  TC: 86.2 mg/dL
  TG: 146.8 mg/dL
  TP: 5.6 g/dL
  gamma-GTP: 0.6 IU/L
